# Data taken from patent US11767305B2, “Advantageous benzofuran compositions for mental disorders or enhancement” (Tactogen Inc, priority 2020, dated 2023).
# Experiments:
# [1] = target: adrenergic β2 receptor (Homo sapiens (Human), UniProt P07550); test: Adrenergic β2 receptor cAMP secondary messenger antagonist assay; format: cell-based
# Source text: This assay used a panel of CHO-K1 cell lines stably expressing non-tagged GPCRs that endogenously signal through cAMP. Hit Hunter® cAMP assays monitored the activation of a GPCR via Gi and Gs secondary messenger signaling in a homogenous, non-imaging assay format using DiscoverX Enzyme Fragment Complementation (EFC) with β-galactosidase as the functional endpoint.
# The enzyme was split into two complementary portions: Enzyme Acceptor (EA) and Enzyme Donor (ED). In the assay, exogenously introduced ED fused to cAMP (ED-cAMP) competed with endogenously generated cAMP for binding to an anti-cAMP-specific antibody. […] Active enzyme could then convert a chemiluminescent substrate, generating an output signal detectable on a standard microplate reader.
# Cell lines were expanded from freezer stocks according to standard procedures. Cells were seeded in a total volume of 20 μL into white walled, 384-well microplates and incubated at 37° C. for the appropriate time prior to testing. cAMP modulation was determined using the DiscoverX HitHunter cAMP XS+ assay. […]
# Compound activity was analyzed using CBIS data analysis suite (ChemInnovation, CA). For Gs antagonist mode assays, percentage inhibition was calculated as 100%×(1−(mean RLU of test sample−mean RLU of vehicle control)/(mean RLU of EC80 control−mean RLU of vehicle control)).
# [2] = target: T1, serotonin (5-HT) transporter (SERT) (Rattus norvegicus (Rat), UniProt P31652); test: Rat synaptosome SERT [3H]5-HT uptake inhibition assay; details: Inhibition of [3H]5-HT Uptake at SERT IC50 (nM), 5 nM [3H]5-HT
# [3] = target: T1, serotonin (5-HT) transporter (SERT); test: Rat synaptosome SERT [3H]5-HT release assay; details: [3H]5-HT release via SERT EC50 (nM), 5 nM [3H]5-HT
# [4] = target: human 5-HT transporter (hSERT) (Homo sapiens (Human), UniProt P31645); test: Human serotonin transporter  assay ([3H]imipramine radioligand, CHO cells); format: binding; details: SERT IC50 (μM), 2 nM [3H]imipramine
# Experimental: Benzofuran derivatives were evaluated for inhibiting the human 5-HT transporter (hSERT) as expressed in CHO cells using an antagonist radioligand assay (Tatsumi, M. et al. (1999), Eur. J Pharmacol., 368: 277-283). […] Test compounds were assayed in three trials at […], and 0.94868 μM.
# Chain of adrenergic β2 receptor (P07550 whole entry, looked up, the tested form may be a part): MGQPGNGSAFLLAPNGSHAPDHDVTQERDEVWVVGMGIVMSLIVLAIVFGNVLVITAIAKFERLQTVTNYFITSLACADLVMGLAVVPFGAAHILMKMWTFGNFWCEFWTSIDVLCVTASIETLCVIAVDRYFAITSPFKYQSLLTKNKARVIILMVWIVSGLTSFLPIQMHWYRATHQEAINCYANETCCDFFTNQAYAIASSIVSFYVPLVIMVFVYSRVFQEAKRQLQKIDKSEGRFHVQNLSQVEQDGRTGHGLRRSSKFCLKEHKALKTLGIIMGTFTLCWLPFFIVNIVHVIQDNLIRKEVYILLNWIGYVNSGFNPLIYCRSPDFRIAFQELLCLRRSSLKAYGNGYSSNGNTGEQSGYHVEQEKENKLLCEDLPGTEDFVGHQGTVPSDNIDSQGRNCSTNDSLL
compound,measurement,setting,value
"CN[C@H](C)Cc1ccc2ccoc2c1 [Compound R-6-MAPB, (R)-1-(benzofuran-6-yl)-N-methylpropan-2-amine]",IC50,[1],4.06 µM
same,IC50,[2],623 ± 31.2 nM
same,EC50,[3],112 ± 17.5 nM
same,IC50,[4],24 µM
